In patent US20020051978A1, “Methods and compositions for the identification, assessment, prevention and therapy of human cancers” (priority 2000, published 2002):
Where two headings read alike, the source gives them in different places.

How the values were obtained:
[1] = system: 60 cancer cell lines (NCI 60 cancer cell line series); conditions: cited from earlier work
[2] = system: 60 cancer cell lines (NCI 60 cancer cell line series); assay: NCI-DTP in vitro cancer screen, sulforhodamine B (SRB) growth inhibition, 48 hour exposure; format: cell-based, human; set-up: key to sensitivity class Ovarian OVCAR-8 CL6005 / sensitivity class Ovarian SK-OV-3 CL6011 / sensitivity class Prostate DU-145 CL11003 / sensitivity class NSCLC NCI-H522 CL1003 / sensitivity class Ovarian IGROV1 CL6010 / sensitivity class Ovarian OVCAR-4 CL6002 / sensitivity class Prostate PC-3(I) CL11001 / sensitivity class Renal A498 CL9013 / sensitivity class Renal SN12C CL9008: sensitivity class: 1 = Low, 2 = Medium, 3 = High
Method in brief: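 Sixty NCI-DTP cancer lines plated at line-specific densities, dosed on day 1 in duplicate with 5 concentrations at ten-fold intervals. After 48 h exposure, cell mass read by SRB staining; GI50 (50% growth inhibition) taken from dose-response curves and expressed as -log GI50.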

O=C1c2c(O)ccc(O)c2C(=O)c2c(NCCNCCO)ccc(NCCNCCO)c21 [Mitoxantrone]
3: classification of cell line as Low(1), Medium(2) or High(3) sensitivity to compound ([2]; Breast MCF7(I) (CL5001)) | classification of cell line as Low(1), Medium(2) or High(3) sensitivity to compound ([2]; CNS SF-539 CL12016) | classification of cell line as Low(1), Medium(2) or High(3) sensitivity to compound ([2]; CNS SNB-19 (CL12002)) | classification of cell line as Low(1), Medium(2) or High(3) sensitivity to compound ([2]; CNS SNB-75(I) CL12005) | classification of cell line as Low(1), Medium(2) or High(3) sensitivity to compound ([2]; CNS U251(I) CL12009) | classification of cell line as Low(1), Medium(2) or High(3) sensitivity to compound ([2]; Leukemia CCRF-CEM(I) (CL7003)) | classification of cell line as Low(1), Medium(2) or High(3) sensitivity to compound ([2]; Leukemia HL-60(I) (CL7008)) | classification of cell line as Low(1), Medium(2) or High(3) sensitivity to compound ([2]; Leukemia MOLT-4 (CL7006)) | classification of cell line as Low(1), Medium(2) or High(3) sensitivity to compound ([2]; Leukemia SR CL7019) | classification of cell line as Low(1), Medium(2) or High(3) sensitivity to compound ([2]; NSCLC A549/ATCC (CL1004)) | classification of cell line as Low(1), Medium(2) or High(3) sensitivity to compound ([2]; NSCLC HOP-62 (CL1026)) | classification of cell line as Low(1), Medium(2) or High(3) sensitivity to compound ([2]; NSCLC HOP-92 (CL1029)) | classification of cell line as Low(1), Medium(2) or High(3) sensitivity to compound ([2]; NSCLC NCI-H226 CL1013) | sensitivity class NSCLC NCI-H460 CL1021 ([2]; cell line NSCLC NCI-H460, CL1021) | sensitivity class Renal ACHN CL9023 ([2]; cell line Renal ACHN, CL9023) | sensitivity class Renal CAKI-1 CL9015 ([2]; cell line Renal CAKI-1, CL9015) | sensitivity class Renal SN12C CL9008 ([2]; cell line Renal SN12C, CL9008)
6.9: -Log (GI50) ([1]; Leukemia K562(I) CL7005) | -Log (GI50) ([1]; Melanoma M14 (CL10014)) | -Log (GI50) ([1]; Melanoma MALME-3M CL10002) | -Log (GI50) ([1]; Prostate PC-3(I) CL11001)
7.9: -Log (GI50) ([1]; CNS SNB-75(I) CL12005) | -Log (GI50) ([1]; NSCLC A549/ATCC (CL1004)) | -Log (GI50) ([1]; NSCLC HOP-62 (CL1026)) | -Log (GI50) ([1]; Renal ACHN CL9023)
2: classification of cell line as Low(1), Medium(2) or High(3) sensitivity to compound ([2]; Breast BT-549 (CL5013)) | classification of cell line as Low(1), Medium(2) or High(3) sensitivity to compound ([2]; Breast HS-578T CL5006) | classification of cell line as Low(1), Medium(2) or High(3) sensitivity to compound ([2]; Breast T-47D (CL5014)) | classification of cell line as Low(1), Medium(2) or High(3) sensitivity to compound ([2]; CNS SF-268 CL12014) | classification of cell line as Low(1), Medium(2) or High(3) sensitivity to compound ([2]; CNS SF-295 CL12015) | classification of cell line as Low(1), Medium(2) or High(3) sensitivity to compound ([2]; Colon COLO-250 CL4010) | classification of cell line as Low(1), Medium(2) or High(3) sensitivity to compound ([2]; Colon HCT-116 (CL4003)) | classification of cell line as Low(1), Medium(2) or High(3) sensitivity to compound ([2]; Colon SW-620 (CL4009)) | classification of cell line as Low(1), Medium(2) or High(3) sensitivity to compound ([2]; Leukemia K562(I) CL7005) | classification of cell line as Low(1), Medium(2) or High(3) sensitivity to compound ([2]; Leukemia RPMI-8226(I) (CL7010)) | classification of cell line as Low(1), Medium(2) or High(3) sensitivity to compound ([2]; Melanoma LOX IMVI CL10001) | classification of cell line as Low(1), Medium(2) or High(3) sensitivity to compound ([2]; Melanoma M14 (CL10014)) | classification of cell line as Low(1), Medium(2) or High(3) sensitivity to compound ([2]; Melanoma MALME-3M CL10002) | classification of cell line as Low(1), Medium(2) or High(3) sensitivity to compound ([2]; Melanoma SK-MEL-5 (CL10007)) | classification of cell line as Low(1), Medium(2) or High(3) sensitivity to compound ([2]; Melanoma UACC-62 (CL10020)) | sensitivity class NSCLC NCI-H23(I) CL1001 ([2]; cell line NSCLC NCI-H23(I), CL1001) | sensitivity class NSCLC NCI-H522 CL1003 ([2]; cell line NSCLC NCI-H522, CL1003) | sensitivity class Ovarian IGROV1 CL6010 ([2]; cell line Ovarian IGROV1, CL6010) | sensitivity class Ovarian OVCAR-8 CL6005 ([2]; cell line Ovarian OVCAR-8, CL6005) | sensitivity class Ovarian SK-OV-3 CL6011 ([2]; cell line Ovarian SK-OV-3, CL6011) | sensitivity class Prostate DU-145 CL11003 ([2]; cell line Prostate DU-145, CL11003) | sensitivity class Prostate PC-3(I) CL11001 ([2]; cell line Prostate PC-3(I), CL11001) | sensitivity class Renal 786-O CL9018 ([2]; cell line Renal 786-O, CL9018) | sensitivity class Renal A498 CL9013 ([2]; cell line Renal A498, CL9013) | sensitivity class Renal RXF-393 CL9016 ([2]; cell line Renal RXF-393, CL9016)
7.5: -Log (GI50) ([1]; CNS SF-268 CL12014) | -Log (GI50) ([1]; Prostate DU-145 CL11003)
7.3: -Log (GI50) ([1]; Colon HCT-116 (CL4003)) | -Log (GI50) ([1]; Colon SW-620 (CL4009)) | -Log (GI50) ([1]; Melanoma SK-MEL-5 (CL10007)) | -Log (GI50) ([1]; NCSLC NCI-H522 CL1003)
8.4: -Log (GI50) ([1]; Breast MCF7(I) (CL5001))
7.2: -Log (GI50) ([1]; Breast BT-549 (CL5013)) | -Log (GI50) ([1]; Breast T-47D (CL5014)) | -Log (GI50) ([1]; NSCLC NCI-H23(I) CL1001) | -Log (GI50) ([1]; Renal A498 CL9013) | -Log (GI50) ([1]; Renal RXF-393 CL9016)
6.6: -Log (GI50) ([1]; Breast MDA-N CL5012) | -Log (GI50) ([1]; Colon HCC-2998 (CL4002)) | -Log (GI50) ([1]; Colon HCT-15 CL4015) | -Log (GI50) ([1]; Colon HT29(I) CL4001) | -Log (GI50) ([1]; NSCLC NCI-H332M CL1017)
5.4: -Log (GI50) ([1]; Breast MCF7/ADRr (CL5002))
6.3: -Log (GI50) ([1]; Breast MDA-MB-435 (CL5011)) | -Log (GI50) ([1]; Colon KM12 (CL4017)) | -Log (GI50) ([1]; Melanoma SK-MEL-28 (CL10008))
8.1: -Log (GI50) ([1]; Leukemia SR CL7019) | -Log (GI50) ([1]; Renal SN12C CL9008)
8.3: -Log (GI50) ([1]; Leukemia MOLT-4 (CL7006))
7.8: -Log (GI50) ([1]; CNS SF-539 CL12016) | -Log (GI50) ([1]; CNS SNB-19 (CL12002)) | -Log (GI50) ([1]; NSCLC HOP-92 (CL1029)) | -Log (GI50) ([1]; NSCLC NCI-H226 CL1013)
6.4: -Log (GI50) ([1]; Melanoma SK-MEL-2 (CL10005)) | -Log (GI50) ([1]; Renal TK10 CL9024)
7.7: -Log (GI50) ([1]; CNS SF-295 CL12015) | -Log (GI50) ([1]; Melanoma LOX IMVI CL10001) | -Log (GI50) ([1]; Renal 786-O CL9018)
6.7: -Log (GI50) ([1]; Breast MDA-MB-231 CL5005) | -Log (GI50) ([1]; Leukemia RPMI-8226(I) (CL7010)) | -Log (GI50) ([1]; Ovarian IGROV1 CL6010)
5.7: -Log (GI50) ([1]; Melanoma UACC-257 (CL10021))
7.4: -Log (GI50) ([1]; Melanoma UACC-62 (CL10020)) | -Log (GI50) ([1]; Ovarian OVCAR-8 CL6005) | -Log (GI50) ([1]; Ovarian SK-OV-3 CL6011)
7.0: -Log (GI50) ([1]; Breast HS-578T CL5006) | -Log (GI50) ([1]; Colon COLO-250 CL4010)
8.2: -Log (GI50) ([1]; Leukemia CCRF-CEM(I) (CL7003)) | -Log (GI50) ([1]; NSCLC NCI-H460 CL1021)
6.5: -Log (GI50) ([1]; NSCLC EKVX (CL1008)) | -Log (GI50) ([1]; Ovarian OVCAR-3 CL6001) | -Log (GI50) ([1]; Ovarian OVCAR-4 CL6002) | -Log (GI50) ([1]; Ovarian OVCAR-5 CL6003) | -Log (GI50) ([1]; Renal UO-31 CL9004)
8.0: -Log (GI50) ([1]; CNS U251(I) CL12009) | -Log (GI50) ([1]; Leukemia HL-60(I) (CL7008)) | -Log (GI50) ([1]; Renal CAKI-1 CL9015)
1: classification of cell line as Low(1), Medium(2) or High(3) sensitivity to compound ([2]; Breast MCF7/ADRr (CL5002)) | classification of cell line as Low(1), Medium(2) or High(3) sensitivity to compound ([2]; Breast MDA-MB-231 CL5005) | classification of cell line as Low(1), Medium(2) or High(3) sensitivity to compound ([2]; Breast MDA-MB-435 (CL5011)) | classification of cell line as Low(1), Medium(2) or High(3) sensitivity to compound ([2]; Breast MDA-N CL5012) | classification of cell line as Low(1), Medium(2) or High(3) sensitivity to compound ([2]; Colon HCC-2998 (CL4002)) | classification of cell line as Low(1), Medium(2) or High(3) sensitivity to compound ([2]; Colon HCT-15 CL4015) | classification of cell line as Low(1), Medium(2) or High(3) sensitivity to compound ([2]; Colon HT29(I) CL4001) | classification of cell line as Low(1), Medium(2) or High(3) sensitivity to compound ([2]; Colon KM12 (CL4017)) | classification of cell line as Low(1), Medium(2) or High(3) sensitivity to compound ([2]; Melanoma SK-MEL-2 (CL10005)) | classification of cell line as Low(1), Medium(2) or High(3) sensitivity to compound ([2]; Melanoma SK-MEL-28 (CL10008)) | classification of cell line as Low(1), Medium(2) or High(3) sensitivity to compound ([2]; Melanoma UACC-257 (CL10021)) | classification of cell line as Low(1), Medium(2) or High(3) sensitivity to compound ([2]; NSCLC EKVX (CL1008)) | sensitivity class NSCLC NCI-H332M CL1017 ([2]; cell line NSCLC NCI-H332M, CL1017) | sensitivity class Ovarian OVCAR-3 CL6001 ([2]; cell line Ovarian OVCAR-3, CL6001) | sensitivity class Ovarian OVCAR-4 CL6002 ([2]; cell line Ovarian OVCAR-4, CL6002) | sensitivity class Ovarian OVCAR-5 CL6003 ([2]; cell line Ovarian OVCAR-5, CL6003) | sensitivity class Renal TK10 CL9024 ([2]; cell line Renal TK10, CL9024) | sensitivity class Renal UO-31 CL9004 ([2]; cell line Renal UO-31, CL9004)
